Values quoted from earlier work in patent EP1219295A1, “Controlled release formulation of valproate” (Abbott Laboratories, priority 2000, dated 2002).
Read-outs that look alike come from different tables or passages of the source.

Columns and labels:
[1] = in vivo

SMILES	patients affected by GI irritation [1]	half life (in adults)	half life (in children)
CCCC(CCC)C(=O)O [valproate]	up to one third		
CCCC(CCC)C(=O)O [valproic acid, 2-Propylpentanoic acid]		six and seventeen	four and fourteen
